Source: US8901129B2, “Methods of facilitating neural cell survival using GDNF family ligand (GFL) mimetics or RET signaling pathway activators” (GeneCode AS, priority 2009, dated 2014)

Legend:
Assay in all cases: Reporter-gene luciferase activity assay, dose-response (FIG. 5)
[1] = test system: GFRα1/RET-expressing cells; type: cell-based; conditions: 1-50 μM, 24 h
Protocol: (§1) Generation of stable cell lines. MG87RET murine fibroblast were plated on […] dishes and transfected with 4 μg of G4-Luc, Gal4-Elk (Baloh et al., 2000) and GFRα1 expressing plasmid (“αLUC” cells) or empty vector (“NOα” cells) containing neomycin-resistance gene in ratio 4:1:1 using Lipofectamine 2000 (Invitrogen) for DNA delivery as described by manufacturer. The following day, cells were trypsinized and plated in low density on 10-cm tissue culture dishes. Stable transformants were selected in the presence of 500-750 μg/ml geneticin (Invitrogen). Established cell lines were maintained in DMEM, 10% fetal bovine serum (FBS), 100 μg/ml Normocin (Invivogene), 2 μg/ml of puromycin, 500 μg/ml of geneticin, 15 mM HEPES, pH 7.2. Pathdetect Elk-1 system and human GFRα1-expressing plasmid (“Strat-Luc” cells) or empty vector (control cell line “NOStratis”) cells were selected and maintained in the DMEM, 10% FBS, 100 μg/ml Normocin (Invivogene), 2 μg/ml of puromycin, 500 μg/ml of G418, 2 μg/ml of blasticidin S, 15 mM HEPES, pH 7.2.
(§2) Cells were plated on 96-well plates (or 384-well) in cell density 20 000 (or 5 000 for 384-well format) cells per well in DMEM, 10% FBS, 100 μg/ml Normocin, 2 μg/ml puromycin, 500 μg/ml of G418, 15 mM HEPES, pH 7.2 one day before assay. The following day, the compounds were added to a final concentration of 1-50 μM. Structures of the compounds are shown in the description of FIG. 5, above. Cells were allowed to produce luciferase for 24 h, then lysed in 20 μl of 1×Cell culture lysis reagent (Promega) and freeze-thawed once to ensure complete lysis. Then 5 μl of the lysate was mixed (on ice) with 20 μl of luciferase assay substrate (Promega) in a well of black Isoplate (PerkinElmer). Luminescence was counted on MicroBeta 2 counter (PerkinElmer) twice. Data are presented as fold induction, where the corresponding concentration of DMSO was used as a reference.

[2] = test system: RET-expressing reporter cell line (RET alone); type: cell-based; conditions: cells expressing RET alone; 1-50 μM, 24 h
Protocol: as §1, §2

[3] = test system: GFRα3/RET-expressing reporter cell line; type: cell-based, human; conditions: GFRα3/RET cells; 1-50 μM, 24 h
Excerpt: Full-length flag-tagged rat Gfrα1 cDNA (Leppänen et al., 2004) subcloned into in pcDNA3 (Invitrogen). Full-length human GFRα1 cDNA (Sidorova et al., unpublished) subcloned in pcDNA6 (Invitrogen). Full-length human GFRα3 cDNA (Wang et al., 2006). Full-length human RET (long isoform) (Runeberg-Roos et al., 2007) in pCR3.1 (Invitrogen). The MAPK activation detection system (Baloh et al., 2000) and PathDetect Elk-1 (Stratagene) both of which include two plasmids. First one constitutively expresses MAPK pathway specific fusion transactivator, that consists of activation domain of Elk-1 and DNA-binding domain of the yeast GAL4 protein (Gal4-Elk1). The other plasmid, Gal4-Luc, carries luciferase gene under the control of a synthetic promoter containing the yeast GAL4 binding sequences.
as §2

SMILES	induction of luciferase expression [1]	induction of luciferase expression [2]	induction of luciferase expression [3]
CCN(CC)S(=O)(=O)c1ccc(OC)c(N2CCN(C(=O)c3cc(F)ccc3C(F)(F)F)CC2)c1 [BT13]	in a dose-dependent manner induce luciferase expression	No significant effect	in a dose-dependent manner induce luciferase expression
COc1cc2c(cc1OC)CN(S(=O)(=O)c1ccc(OC)c(N3CCN(C(=O)c4cc(F)ccc4C(F)(F)F)CC3)c1)CC2 [BT18]	active	–	–
COc1ccc(S(=O)(=O)N2CCc3ccccc3C2)cc1N1CCN(C(=O)c2cc(F)ccc2C(F)(F)F)CC1 [BT16]	in a dose-dependent manner induce luciferase expression	No significant effect	in a dose-dependent manner induce luciferase expression
